Where “and” joins values, the source holds several entries; their conditions need not be identical. Equal values may be shown once. Where a name gives a salt, the structure may show the parent alone.
Columns and labels:
Sabra mice [1] = test: Zymosan-induced hind paw swelling (inflammation), caliper; type: in vivo
Female sabra mice = test: Forced swimming test (FST) for depressive effect; type: in vivo; details: for moment/kicking per minute score, Mean: mean of last 4 min
Protocol: To find out whether HU436 has depressive effects on mice behavior—a forced swimming test (FST) was adopted.
Female sabra mice 6-8 weeks old were employed. Measurement of locomotor activity in mice movements were counted for 6 minutes.
Forced Swimming test (FST): The forced swimming test employed was essential similar to that described in ((Pettit-Demoulier et al, (2005) Psychopharmacology 177:245-255;)
Mice were dropped individually into a glass aquarium (height […], diameter 10 cm) containing 10 cm of water and their activity was monitored for 6 minutes. Of the total 6 minutes only the last 4 minutes was recorded—the first 2 minutes were considered as time for habitation.
The mice were treated either with 5 mg/kg or 10 mg/kg of HU436 (ip). Mice were scored at 10 minutes 90 minutes or 180 minutes after administration. In addition to mice treated with vehicle as control, 1 mice was injected ip with 5 mg/kg CBD and scored 10 minutes later. The movements/kicking of the mice were counted and the data are presented in the attached Table 1.

TNFα = TNFα levels in sera of zymosan-injected Sabra mice (Elisa); type: in vivo; details: 24 hrs after application
Protocol: (§1) Activity of HU-436 given orally were assayed in Sabra mice. Zymosan injected to mice left hind paw, induced inflammation, TNF (tumor necrosis factor) in the serum as well as pain. During 24 h, the inflammatory paw swelling response was assayed by caliper, whereas the pain in the hind paw, was determined by Von Frey monofiber instrument.
(§2) Sabra female, mice 6-7 weeks old, were employed. Zymosan 0.6 mgr in 40 micro-liters was injected into the left hind paw. Immediately thereafter 20 30, 50 or 100 mg/kg HU436 dissolved in olive oil, in 200 μl—was given orally. Two, six and twenty-four hours thereafter, the injected left hind paw of the mice (total 5-8 mice/treatment), were examined both for swelling (Inflammation) and pain (Von Frey). The levels of TNFα in the sera of Sabra mice were determined by Elisa, 24 hrs after HU-436 application.

[2] = Weight loss Study 3: weight gain and food consumption of C57BL/6 mice; type: in vivo; details: for food consumption: after 1-3 weeks; for reduction in weight gain compared to the control group: three weeks
Protocol: C57BL/6 mice (8-9 weeks old, 16 gram, 5 mice/group) were injected (intra-peritoneal) with two doses of HU-436 (5 mg/Kg and 10 mg/Kg). The change in weight of mice was measured weekly for three weeks (FIGS. 8 and 9) from injection. In addition, a control group (wherein no dose was given) was monitored for comparison.

[3] = Weight loss Study 2: weight change of normal Sabra mice; type: in vivo; details: 5 mg/Kg intra-peritoneal; 15 and 24 days
Protocol: Normal Sabra (mice 9-10 weeks old, about 32 gram, 7 mice/group) were injected (intra-peritoneal) with two doses of HU-436 (5 mg/Kg and 10 mg/Kg). The change in weight of mice was measured daily for 15 (FIG. 6) and 24 days (FIG. 7) from injection. In addition, a control group (wherein no dose was given) was monitored for comparison.

Raw 264.7 cells = test: Reactive oxygen intermediate (ROI) production by Raw 264.7 macrophages (luminol/zymosan chemiluminescence); type: cell-based, mice; details: Mus musculus, RAW264.7, read-out: inhibition of ROI generation
Protocol: (§3) Raw 264.7 cells, a monocytic-macrophage cell line derived from BALB/c mice, were obtained from American Type Culture collection (Rockville, Md.). The cells were cultured in Dulbecco's modified Eagle medium (DMEM) supplemented with 5% fetal calf serum (FCS) and sodium pyrovate, glutamine, and antibiotics. For activation, the cells were incubated with LPS (E. coli 1 μg/mL for 24 h, Sigma, Israel). These cells were applied for ROI and Nitric Oxide (NO) generation in-vitro.
Raw 264.7 cells were removed using a scrapper, washed, and re-suspended in Hanks balanced salt solution (without phenol red). For measurement of chemiluminescence, two luminometer tubes were each loaded with: 0.5 mL of cell suspension (5×10^5 cells), HU-436 (two separate doses in each tube of 40 μg/ml and 60 μg/ml), 10 μL luminol (Sigma) and 30 μL of zymosan (Sigma). The chemiluminescence in each tube was measured immediately thereafter by a luminometer (Biolumate LB 95, Berhold, Wilbad, Germany)

RAW 264.7 macrophages = test: Nitric oxide (NO) production by LPS-activated RAW 264.7 macrophages (Griess); type: cell-based, mice; details: Mus musculus, RAW264.7; 60 μg/ml; LPS 1 μg/mL, 24 h
Protocol: as §3
RAW 264.7 macrophages were treated with various doses (1-60 μg/ml) of HU-436 followed the addition of 1 μg/mL of lipopolysaccharide (LPS, E. coli, Sigma) for activation. The macrophages were then cultivated in a humid atmosphere with 5% CO2 for 24 h. NO generation was determined by measuring the nitrite accumulated in the supernatants (100 μL) of the HU-436-treated macrophages as follows: An equal volume (100 μL) of Griess reagent (1% sulfanilamide, 0.1% naphthalene diamine HCl, 2% H3PO4) was added to each supernatant. Following 10 min of incubation at room temperature, the color production was measured at 550 nm with an ELISA reader. The concentration of nitrite was calculated according to a standard curve. The results are presented in FIG. 1 wherein inhibition of more than 50% was found fallowing incubation of the cells with 60 μg/ml HU-436.

TNF-α = TNF-α in supernatants of TG macrophages treated with LPS (ELISA); type: cell-based, mice; details: Mus musculus, Macrophage, 40 μg/ml, read-out: inhibition in TNF production
Protocol: Peritoneal cells were harvested from C57BL/6 female mice 4 days after intra-peritoneal injection of 1.5 mL of 3% thioglycollate medium (Difco). The cells (TG macrophages) were washed with phosphate-buffered saline, re-suspended in Dulbecco's modified Eagle medium (DMEM) supplemented with 5% fetal calf serum (FCS), and plated (1.2×10^5) in 96-microwell flat-bottom plates (Nunc, Roskide, Denmark). Following 2-3 h incubation at 37° C., the non-adherent cells were removed by intensive rinsing. About 95% of the adherent cells were macrophages. These cells were applied for studying TNF production in-vitro.
TNF-α in the supernatants of TG macrophages treated with HU-436 (doses of […]) and LPS was determined by ELISA (R&D) with Ab pairs from Biosource (Camarillo, Calif.). Procedures were carried out following the manufacturer's instructions.

[4] = Weight loss Study 1: body weight of DBA/1 male mice injected Type II collagen for CIA; type: in vivo; details: 5 mg/Kg intra-peritoneal for 16 days from day 18; 34 days
Protocol: DBA/1 male mice (6 weeks old, 20 gram, 15 mice/group) were injected Type II collagen for CIA. On day 18, the mice were injected (intra-peritoneal) with the following doses, for 16 days:
Vehicle: ethanol: chremophor: saline (1:1:18)
Methrotrexate (MTX): 0.5 mg/Kg.
In addition, a control group (wherein no dose was given) was monitored for comparison. The changes in body weight (in grams) was measured daily for a period of 34 days from injection. FIG. 4 (days 18-34) and FIG. 5 (overall change from day 1 to 34), show the changes in body weight of mice over a period of 34 days from injection.

TNF = TNF level in serum of C57BL mice injected with LPS; type: in vivo; details: 30 mg/Kg injected together with LPS; 90 min after injection
Protocol: Three doses of HU-436 (10 mg/Kg, 20 mg/Kg and 30 mg/Kg) were each injected to three C57BL mice together with LPS. Ninety min fallowing the injections, the mice were bled and the TNF levels in the serum were determined.

Sabra mice [5] = test: Zymosan-induced hind paw pain, Von Frey monofiber instrument; type: in vivo; details: for pain reduction: 2, 6, 24 h
Protocol: as §1, §2
Pain, was assayed by employing Von-Frey monofiber instrument. The higher the log value measured, the more force (g) one has to apply to cause pain=higher analgesia is being expressed=less pain.

C57BL = test: Preliminary toxicological studies in C57BL; type: in vivo, mice
[6] = 5 mg/kg, 10 min after ip, minute 3 in tank
[7] = 5 mg/kg, 10 min after ip, minute 4 in tank
[8] = 5 mg/kg, 10 min after ip, minute 5 in tank
[9] = 5 mg/kg, 10 min after ip, minute 6 in tank

In the case of `C=C(C)[C@@H]1CCC(C)=C[C@H]1c1c(O)cc(CCCCC)cc1O` [CBD, Cannabidiol, reference compound], the “potency in reducing inflammation relative to HU-436” value (Sabra mice [1]; all experiments) is reported as “scientifically more potent than HU-436 in reducing inflammation”, the “moment/kicking per minute score, Mean” value (Female sabra mice; 5 mg/kg, 10 min after ip) is reported as 65 per minute and the “moment/kicking per minute score” value (Female sabra mice; [6]) is reported as 76 per minute. For the same molecule, the “moment/kicking per minute score” value (Female sabra mice; [7]) was 75 per minute, the “moment/kicking per minute score” value (Female sabra mice; [8]) was 48 per minute and the “moment/kicking per minute score” value (Female sabra mice; [9]) was 60 per minute. For the same molecule, the “reduction of TNFα levels in the sera” value (TNFα) was 48-58%.

With `C=C(C)C1CCC(C)=CC1c1c(OC)cc(CCCCC)cc1OC(=O)CCN1CCOCC1` [HU-436, Maleate Salt of 3-methoxy-2-((6R)-3-methyl-6-(prop-l-en-2-yl)cyclohex-2-enyl)-5-pentylphenyl 3-morpholinopropanoate] the “inflammatory response (swelling) compared to controls” value (Sabra mice [1]; 20 mg/kg ip injection) was “reduction in inflammatory response (swelling) was observed compared to controls”, the “inflammation compared to the controls” value (Sabra mice [1]; 30 mg/kg given orally) was “reduced inflammation compared to the controls” and the “inflammation compared to the controls” value (Sabra mice [1]; 50 mg/kg given orally) was “reduced inflammation compared to the controls”. For the same molecule, the anti-inflammation properties (Sabra mice [1]; conclusion) was “moderate anti-inflammation properties”, the food consumption ([2]; 5 mg/Kg intra-peritoneal) was “reduction in food consumption” and the “reduction in weight gain compared to the control group” value ([2]; 5 mg/Kg intra-peritoneal) was “about 50%”. For the same molecule, the food consumption ([2]; 10 mg/Kg intra-peritoneal) was “reduction in food consumption”, the “reduction in weight gain compared to the control group” value ([2]; 10 mg/Kg intra-peritoneal) was “about 50%” and the “changes in weight gain” value [3] was “significantly decreased the changes in weight gain”. For the same molecule, the inhibition at 40 µg/mL (Raw 264.7 cells; 40 μg/ml) was 20%, the inhibition at 60 µg/mL (Raw 264.7 cells; 60 μg/ml) was 28% and the inhibition at 60 µg/mL (RAW 264.7 macrophages) was greater than 50%. The inhibition at 40 µg/mL (TNF-α) was greater than 60%, the “reduction of body weight (weight gain of control group = 100% gain)” value [4] was “up to 61%” and the “inhibition in TNF level in the serum” value (TNF) was 46%. For the same molecule, the pain reduction (Sabra mice [5]; 20 mg/kg given orally) was “marked pain reduction”, the pain reduction (Sabra mice [5]; 30 mg/kg given orally) was “marked pain reduction” and the pain reduction (Sabra mice [5]; 50 mg/kg given orally) was “marked pain reduction”. The “pain reduction compared to Tremadol (5 mg/kg intra-peritoneally)” value (Sabra mice [5]; 50 mg/kg, after 24 hr) was “more potent after 24 hr than Tremadol”, the pain reduction (Sabra mice [5]; 100 mg/kg given orally) was “marked pain reduction” and the “pain reduction compared to Aspirin” value (Sabra mice [5]; HU-436 30 or 50 mg/kg vs Aspirin 50 (and 100) mg/kg, 24 hr) was “the most potent in reducing pain for 24 hr”. For the same molecule, the “long lasting pain reduction compared to Cannabidiol, Aspirin” value (Sabra mice [5]; conclusion) was “more effective than Cannabidiol, Aspirin in reducing long lasting pain”, the toxicity (C57BL; 50 mg/Kg) was “non-toxic” and the toxicity (C57BL; 100 mg/Kg) was “non-toxic”. The “moment/kicking per minute score, Mean” value (Female sabra mice; 5 mg/kg, 10 min after ip) was 81 per minute, the “moment/kicking per minute score” value (Female sabra mice; [6]) was 84 per minute and the “moment/kicking per minute score” value (Female sabra mice; [7]) was 96 per minute. The “moment/kicking per minute score” value (Female sabra mice; [8]) was 76 per minute, the “moment/kicking per minute score” value (Female sabra mice; [9]) was 68 per minute and the “moment/kicking per minute score, Mean” value (Female sabra mice; 5 mg/kg, 90 min after ip) was 75 per minute. The “moment/kicking per minute score” value (Female sabra mice; 5 mg/kg, 90 min after ip, minute 3 in tank) was 70 per minute, the “moment/kicking per minute score” value (Female sabra mice; 5 mg/kg, 90 min after ip, minute 4 in tank) was 85 per minute and the “moment/kicking per minute score” value (Female sabra mice; 5 mg/kg, 90 min after ip, minute 5 in tank) was 72 per minute. For the same molecule, the “moment/kicking per minute score” value (Female sabra mice; 5 mg/kg, 90 min after ip, minute 6 in tank) was 73 per minute, the “moment/kicking per minute score, Mean” value (Female sabra mice; 10 mg/kg, 10 min after ip) was 75 per minute and the “moment/kicking per minute score” value (Female sabra mice; 10 mg/kg, 10 min after ip, minute 3 in tank) was 80 per minute. The “moment/kicking per minute score” value (Female sabra mice; 10 mg/kg, 10 min after ip, minute 4 in tank) was 84 per minute, the “moment/kicking per minute score” value (Female sabra mice; 10 mg/kg, 10 min after ip, minute 5 in tank) was 64 per minute and the “moment/kicking per minute score” value (Female sabra mice; 10 mg/kg, 10 min after ip, minute 6 in tank) was 72 per minute. The “moment/kicking per minute score, Mean” value (Female sabra mice; 10 mg/kg, 180 min after ip) was 77 per minute, the “moment/kicking per minute score” value (Female sabra mice; 10 mg/kg, 180 min after ip, minute 3 in tank) was 76 per minute and the “moment/kicking per minute score” value (Female sabra mice; 10 mg/kg, 180 min after ip, minute 4 in tank) was 52 per minute. For the same molecule, the “moment/kicking per minute score” value (Female sabra mice; 10 mg/kg, 180 min after ip, minute 5 in tank) was 90 per minute, the “moment/kicking per minute score” value (Female sabra mice; 10 mg/kg, 180 min after ip, minute 6 in tank) was 90 per minute and the “moment/kicking per minute score, Mean” value (Female sabra mice; 10 mg/kg, time after ip not given) was 81 per minute and 83 per minute. For the same molecule, the “moment/kicking per minute score” value (Female sabra mice; 10 mg/kg, time after ip not given, minute 3 in tank) was 79 per minute and 74 per minute, the “moment/kicking per minute score” value (Female sabra mice; 10 mg/kg, time after ip not given, minute 4 in tank) was 80 per minute and 64 per minute and the “moment/kicking per minute score” value (Female sabra mice; 10 mg/kg, time after ip not given, minute 5 in tank) was 89 per minute and 112 per minute. For the same molecule, the “moment/kicking per minute score” value (Female sabra mice; 10 mg/kg, time after ip not given, minute 6 in tank) was 76 per minute and 83 per minute, the depressive activity (Female sabra mice; 5 or 10 mg/kg ip) was “did not cause depressive activity” and the “reduction of TNFα levels in the sera” value (TNFα) was “up to 20%”.

From patent US11149014B2, “Method for treating pain or associated condition or symptom” (priority 2014, dated 2021)
